Where a name gives a salt, the structure may show the parent alone.

Holding throughout (type): physicochemical
The nature of data set [1]: Solid state stability test (preservation stability, 70° C./75% RH, 2 weeks). The settings on record: for Appearance change / Total amount of analogous substances (%) 70° C./75% RH (closed system) / Total amount of analogous substances (%) 70° C./75% RH (open system) / amount of analogous substances after preservation (in words) / Powder X-ray diffraction pattern (change after preservation): after 2 weeks at 70° C./75% RH; for Total amount of analogous substances (%) 70° C./75% RH (closed system) / Total amount of analogous substances (%) 70° C./75% RH (open system) / Total amount of analogous substances (%) Initial value: HPLC; for Total amount of analogous substances (%) Initial value: before preservation, UV 220 nm. Here is the method:
The preservation stability of each of the type I crystal, type II crystal, and type III crystal of the free base of Compound (I), which were produced according to the methods described in Examples 1, 2 and 3 above, respectively, was tested under the following conditions. • Preservation conditions: 70° C./75% RH (open system and closed system) • Measuring point: 2 weeks • Preserved amount: about 50 mg • Preservation container: brown glass bottle
The powder X-ray diffraction of the sample after preservation was measured according to the aforementioned method. A change in the amount of analogous substances (the amount of substances detected other than Compound (I)) was measured by weighing out about 1 mg of the sample, dissolving it in about 5 mL of a water/acetonitrile mixed solution (1:1), accurately measuring 5 μL of this solution, and analyzing it by HPLC using the following method. • Column: InertSustain C18, 4.6×150 mm, 3 μm • Column temperature: 40° C. • Column flow rate: 1.0 mL/min • Mobile phase: A—10 mM phosphate buffer (pH 5.5)/acetonitrile (9:1); B—acetonitrile • Detection UV: 220 nm • Gradient: […]
The crystal of the hydrochloride of Compound (I), the crystal of the maleate of Compound (I), the crystal of ½ malate of Compound (I), and the crystal of the acetate of Compound (I),which were produced according to the methods described in Example 4, Example 5, Comparative Example 1, and Comparative Example 2, were tested in terms of preservation stability under the conditions of Test Example 1.

Data set [2] in a line: Heat stability test (powder X-ray diffraction under heating to 210° C.). Particulars: heating from 25° C. to 210° C. Here is the method:
Using the free base type I crystal, the free base type II crystal, and the free base type III crystal, which were produced according to the methods described in Examples 1, 2 and 3 above, a heat stability test was carried out.
Powder X-ray diffraction measurement was carried out at 25° C., and the temperature was raised to 50° C. over 30 minutes, after which powder X-ray diffraction measurement was carried out. Thereafter, the temperature was further raised to 210° C. at 10° C./10 minutes, and powder X-ray diffraction measurement was then carried out. After that, the temperature was lowered to 25° C. over 30 minutes, and powder X-ray diffraction measurement was then carried out.

The nature of data set [3]: Dynamic moisture adsorption/desorption test. The settings on record: 25° C., humidity 5% RH to 95% RH and back to 5% RH. Here is the method: For the test, a VTI-SA+ (TA Instruments) was used. About 10 mg of each of a free base type I crystal, a free base type II crystal, and a […] was weighed, and was placed in a pan. While confirming that the weight fluctuation was within 0.0100% in 5 minutes, the temperature was raised up to 60° C. at 1 degree per minute. If the weight fluctuated, the temperature was maintained for a maximum of 5 hours before proceeding to the next step. Thereafter, the temperature was lowered to 25° C., and the humidity was raised from 5% RH to 95% RH, and was then lowered to 5% RH. At that time, the humidity was changed by 5% RH while confirming that the weight fluctuation was within 0.00100% in 5 minutes. If the weight fluctuated, the humidity was maintained for a maximum of 2 hours before proceeding to the next step.
The crystal of the hydrochloride of Compound (I), the crystal of the maleate of Compound (I), the crystal of ½ malate of Compound (I), and the crystal of the acetate of Compound (I),which were produced according to the methods described in Example 4, Example 5, Comparative Example 1, and Comparative Example 2, were tested in terms of preservation stability under the conditions of Test Example 2.

The mark [4] stands for this setting: listed as crystal of the ½ malate of Compound (I).
The mark [5] stands for this setting: listed as free base type II crystal.
Setting [6] is: listed as crystal of the maleate of Compound (I).
The mark [7] stands for this setting: listed as free base type III crystal.
Where [8] appears, read: listed as crystal of the acetate of Compound (I).
[9] abbreviates: listed as crystal of the hydrochloride of Compound (I).

As for `CC(C)(C)NCCNc1ccc(-c2nnc(C(F)(F)F)o2)nc1C1CCN(c2ncnc3c2C(C)(C)C(=O)N3)CC1` [Crystal of ½ malate, 4-(4-(3-((2-(tert-butylamino)ethyl)amino)-6-(5-(trifluoromethyl)-1,3,4-oxadiazol-2-yl)pyridin-2-yl)piperidin-1-yl)-5,5-dimethyl-5H-pyrrolo[2,3-d]pyrimidin-6(7H)-one], in data set [1], the Appearance change entry is “No significant”, the “Total amount of analogous substances (%) 70° C./75% RH (closed system)” value amounted to 5.2%, the “Total amount of analogous substances (%) 70° C./75% RH (open system)” value worked out at 64.0% and the “Total amount of analogous substances (%) Initial value” is reported as 0.4%. Also, in data set [1] (setting [4]), the Appearance change entry is recorded as “no change in appearance” and the “amount of analogous substances after preservation (in words)” value is “large amounts of analogous substances”.
As for `CC(C)(C)NCCNc1ccc(-c2nnc(C(F)(F)F)o2)nc1C1CCN(c2ncnc3c2C(C)(C)C(=O)N3)CC1` [Free body type II crystal, 4-(4-(3-((2-(tert-butylamino)ethyl)amino)-6-(5-(trifluoromethyl)-1,3,4-oxadiazol-2-yl)pyridin-2-yl)piperidin-1-yl)-5,5-dimethyl-5H-pyrrolo[2,3-d]pyrimidin-6(7H)-one], the “change of crystal form under heating (powder X-ray diffraction)” value (“change … (powder X-ray diffraction)” below) in data set [2] (setting [5]) is on record as “new peaks appeared”. Besides, in data set [3] (setting [5]), the “hygroscopicity (moisture adsorption/desorption isotherm)” value was “low hygroscopicity”. Also, in data set [1], the Appearance change result is given as “No significant”, the “Powder X-ray diffraction pattern (change after preservation)” value is on record as “No significant”, the “Total amount of analogous substances (%) 70° C./75% RH (closed system)” value was found to be 0.5% and the “Total amount of analogous substances (%) 70° C./75% RH (open system)” value was 0.6%. The “Total amount of analogous substances (%) Initial value” in data set [1] is 0.5%. Further, the “Powder X-ray diffraction pattern (change after preservation)” value in data set [1] (listed as type II crystal) is listed as “no change was observed”.
For `CC(C)(C)NCCNc1ccc(-c2nnc(C(F)(F)F)o2)nc1C1CCN(c2ncnc3c2C(C)(C)C(=O)N3)CC1` [Crystal of maleate, 4-(4-(3-((2-(tert-butylamino)ethyl)amino)-6-(5-(trifluoromethyl)-1,3,4-oxadiazol-2-yl)pyridin-2-yl)piperidin-1-yl)-5,5-dimethyl-5H-pyrrolo[2,3-d]pyrimidin-6(7H)-one], the “hygroscopicity (moisture adsorption/desorption isotherm)” value in data set [3] (listed as crystal of the maleate) is recorded as “low hygroscopicity”. Further, in data set [1], the Appearance change entry was “No significant”, the “Powder X-ray diffraction pattern (change after preservation)” value is on record as “No significant”, the “Total amount of analogous substances (%) 70° C./75% RH (closed system)” value was found to be 0.1% and the “Total amount of analogous substances (%) 70° C./75% RH (open system)” value was 0.1%. In addition, the “Total amount of analogous substances (%) Initial value” in data set [1] is 0.1%. Further, in data set [1] (setting [6]), the Appearance change result is reported as “no change was observed in appearance”, the “Powder X-ray diffraction pattern (change after preservation)” value is reported as “no changes” and the “amount of analogous substances after preservation (in words)” value is recorded as “only small amounts of analogous substances”.
In the case of `CC(C)(C)NCCNc1ccc(-c2nnc(C(F)(F)F)o2)nc1C1CCN(c2ncnc3c2C(C)(C)C(=O)N3)CC1` [Frcc body type III crystal, 4-(4-(3-((2-(tert-butylamino)ethyl)amino)-6-(5-(trifluoromethyl)-1,3,4-oxadiazol-2-yl)pyridin-2-yl)piperidin-1-yl)-5,5-dimethyl-5H-pyrrolo[2,3-d]pyrimidin-6(7H)-one], the “change … (powder X-ray diffraction)” value in data set [2] (setting [7]) is recorded as “new peaks appeared”. Also, the “hygroscopicity (moisture adsorption/desorption isotherm)” value in data set [3] is recorded as “excellent low hygroscopicity”. Moreover, in data set [3] (setting [7]), the “hygroscopicity (moisture adsorption/desorption isotherm)” value is on record as “low hygroscopicity”. Further, in data set [1], the Appearance change entry is reported as “No significant”, the “Powder X-ray diffraction pattern (change after preservation)” value is reported as “No significant”, the “Total amount of analogous substances (%) 70° C./75% RH (closed system)” value was 0.7% and the “Total amount of analogous substances (%) 70° C./75% RH (open system)” value turned out to be 0.8%. For the same compound, in data set [1], the “Total amount of analogous substances (%) Initial value” is 0.5%. Besides, the “Powder X-ray diffraction pattern (change after preservation)” value in data set [1] (listed as type III crystal) is given as “no change was observed”.
Turning to `CC(C)(C)NCCNc1ccc(-c2nnc(C(F)(F)F)o2)nc1C1CCN(c2ncnc3c2C(C)(C)C(=O)N3)CC1` [Crystal of acetate, 4-(4-(3-((2-(tert-butylamino)ethyl)amino)-6-(5-(trifluoromethyl)-1,3,4-oxadiazol-2-yl)pyridin-2-yl)piperidin-1-yl)-5,5-dimethyl-5H-pyrrolo[2,3-d]pyrimidin-6(7H)-one], in data set [1], the Appearance change entry is “No significant”, the “Total amount of analogous substances (%) 70° C./75% RH (closed system)” value is 0.3%, the “Total amount of analogous substances (%) 70° C./75% RH (open system)” value worked out at 1.1% and the “Total amount of analogous substances (%) Initial value” was determined as 0.3%. Further, in data set [1] (setting [8]), the Appearance change entry was “no change in appearance” and the “amount of analogous substances after preservation (in words)” value is given as “large amounts of analogous substances”.
Regarding `CC(C)(C)NCCNc1ccc(-c2nnc(C(F)(F)F)o2)nc1C1CCN(c2ncnc3c2C(C)(C)C(=O)N3)CC1` [Crystal of hydrochloride, 4-(4-(3-((2-(tert-butylamino)ethyl)amino)-6-(5-(trifluoromethyl)-1,3,4-oxadiazol-2-yl)pyridin-2-yl)piperidin-1-yl)-5,5-dimethyl-5H-pyrrolo[2,3-d]pyrimidin-6(7H)-one], in data set [3] (listed as crystal of the hydrochloride), the “hygroscopicity (moisture adsorption/desorption isotherm)” value was “lower hygroscopicity than the crystal of the ½ malate”. Further, in data set [1], the Appearance change result was “No significant”, the “Powder X-ray diffraction pattern (change after preservation)” value is listed as “No significant”, the “Total amount of analogous substances (%) 70° C./75% RH (closed system)” value worked out at 0.2% and the “Total amount of analogous substances (%) 70° C./75% RH (open system)” value was found to be 0.2%. For the same compound, in data set [1], the “Total amount of analogous substances (%) Initial value” came to 0.2%. In data set [1] (setting [9]), the Appearance change result is reported as “no change was observed in appearance”, the “Powder X-ray diffraction pattern (change after preservation)” value is given as “no changes” and the “amount of analogous substances after preservation (in words)” value is listed as “only small amounts of analogous substances”.
For `CC(C)(C)NCCNc1ccc(-c2nnc(C(F)(F)F)o2)nc1C1CCN(c2ncnc3c2C(C)(C)C(=O)N3)CC1` [Free body type I crystal, 4-(4-(3-((2-(tert-butylamino)ethyl)amino)-6-(5-(trifluoromethyl)-1,3,4-oxadiazol-2-yl)pyridin-2-yl)piperidin-1-yl)-5,5-dimethyl-5H-pyrrolo[2,3-d]pyrimidin-6(7H)-one], in data set [2] (listed as free base type 1 crystal), the “change … (powder X-ray diffraction)” value is “no changes were observed in the crystal form”. In addition, in data set [3], the “hygroscopicity (moisture adsorption/desorption isotherm)” value is given as “excellent low hygroscopicity”. The “hygroscopicity (moisture adsorption/desorption isotherm)” value in data set [3] (listed as free base type I crystal) is listed as “low hygroscopicity”. In addition, in data set [1], the Appearance change entry is listed as “No significant”, the “Powder X-ray diffraction pattern (change after preservation)” value is given as “No significant”, the “Total amount of analogous substances (%) 70° C./75% RH (closed system)” value was 0.5% and the “Total amount of analogous substances (%) 70° C./75% RH (open system)” value amounted to 0.5%. Besides, in data set [1], the “Total amount of analogous substances (%) Initial value” is listed as 0.6%. Besides, the “Powder X-ray diffraction pattern (change after preservation)” value in data set [1] (listed as type I crystal) was “no change was observed”.
